{"source": "patent US20170348337A1", "about": "“MULTIFUNCTIONAL MEMBRANE-ACTIVE AMINOGLYCOSIDE-PEPTIDE CONJUGATES” (priority 2014, published 2017)", "key": {"[1]": {"test_system": "bioluminescent Staphylococcus aureus", "experiment": "in vivo murine implantation (implant infection) model", "design": "species or system lysEGFP mice", "settings": "PMMA-coated titanium disks, subcutaneous; throughout 5 days; p<0.05", "method": "Methods: Survival surgery was performed in which circular orthopedic-grade titanium disks were implanted subcutaneously on the backs of 25 lysEGFP mice. Disks were coated in poly-methyl-methacrylate (PMMA) cement mixed with either Pentobra, Tobramycin, or no antibiotic (control). The disks were inoculated with 1×10^7 colony-forming units (CFU) of bioluminescent Staphylococcus aureus. Bacterial burden and neutrophil inflammation were followed via bioluminescent and fluorescent imaging, respectively, on post-operative days (POD) 0, 1, 3, and 5. Implants and surrounding tissue were subsequently removed and cultured. Statistical assessment of data was performed via ANOVA analysis."}, "S. aureus": {"test_system": "S. aureus", "experiment": "antimicrobial activity (MIC) of P-L-A conjugates", "format": "cell-based"}, "P. aeruginosa": {"test_system": "P. aeruginosa", "experiment": "antimicrobial activity (MIC) of P-L-A conjugates", "format": "cell-based"}, "[2]": {"experiment": "synchrotron small angle X-ray scattering (SAXS) of model membranes", "settings": "DOPE/DOPS=80/20; Pentobra to lipid 1/80; tobramycin to lipid 1/20 or 1/40", "method": "Briefly, DOPE and DOPS lyophilized lipids from Avanti Polar lipids were used without further purification. SUVs were prepared by sonication. Stock solutions of DOPE and DOPS were prepared in chloroform at ˜20 mg/g. Mixtures of these lipids were prepared at molar ratios, so DOPE/DOPS=80/20 corresponded to a 4:1 lipid ratio. Chloroform was evaporated under N2, and the mixtures were dried further by overnight desiccation under vacuum. The dried lipids were resuspended the next day in 100 mM NaCl. Solutions were incubated at 37° C. for 18 h and then sonicated until clear. SUVs were obtained by extrusion (0.2 μm pore Nucleopore filter).\nPentobra and tobramycin stock solutions were prepared by dissolving the molecules in 100 mM NaCl. Lipids were thoroughly mixed with Pentobra/tobramycin at specific molecule to lipid ratios (P/L) in 100 mM NaCl. Sample solutions were hermetically sealed in quartz-glass capillaries (Hilgenberg GmbH, Mark-tubes, code no: 4017515). Synchrotron SAXS experiments were conducted at the Stanford Synchrotron Radiation Laboratory (BL 4-2). Monochromatic X-rays with 9 keV energy were used. Scattering was collected using a Rayonix MX225-HE detector (pixel size 73.2 μm). Samples were also measured at the California NanoSystems Institute (CNSI) at UCLA. […] Identical samples were prepared and measured at different times and multiple sources to ensure consistency between samples. […]"}, "[3]": {"test_system": "P. acnes laboratory strain ATCC 6919", "experiment": "P. acnes CFU assay, laboratory strain", "format": "cell-based, Propionibacterium acnes"}, "[4]": {"settings": "aminoglycosides; cited from earlier work"}, "[5]": {"test_system": "IL-6, IL-8, TNF-α and IL-12p40 in human monocytes", "experiment": "cytokine ELISA in P. acnes-activated monocytes", "format": "cell-based", "settings": "24 hrs co-treatment", "method": "Peripheral blood mononuclear cells (PBMCs) were isolated from whole blood of normal healthy donors as approved by the Institutional Review Board at UCLA using Ficoll-Paque gradients (GE Healthcare, Piscataway, N.J.) and plated onto six-well tissue culture plates (20×10^6-30×10^6 per well) for 2 hours in RPMI 1640 medium (Invitrogen Life Technologies, Carlsbad, Calif.) supplemented with 1% fetal calf serum (Omega Scientific, Tarzana, Calif.). Nonadherent cells were removed by rigorously washing three times with RPMI. Adherent monocytes were stimulated (co-treated) with media or P. acnes in the presence of tobramycin or Pentobra in 10% fetal calf serum. P. acnes was used at an MOI of 0.5 and cells were cultured for 24 hours at 37° C.\nIL-6, IL-8, Tumor necrosis factor alpha (TNF-α) and IL-12p40 levels in culture supernatants were measured by ELISA following the manufacturer's recommendations (Invitrogen). Samples were assayed in triplicates. Results are expressed as mean±SD of at least three independent experiments, with monocytes obtained from three independent donors.\nMonocytes were cultured and evaluated for cytokine and chemokine expression by ELISA and real time PCR after 24 hrs."}}, "note": "Entries after “also recorded” stand apart in the source; their conditions may differ."}
{"smiles": "NC[C@H]1O[C@H](O[C@H]2[C@H](O)[C@@H](O[C@H]3O[C@H](CO)[C@@H](O)[C@H](N)[C@H]3O)[C@H](N)C[C@@H]2N)[C@H](N)C[C@@H]1O", "note": "[tobramycin]", "values": [{"measurement": "bacterial bioluminescent signal compared to control group", "setting": "[1]", "value": "significantly lower bacterial bioluminescent signal"}, {"measurement": "MIC (μM) S. aureus (mid-log)", "setting": "S. aureus", "value": 3.12, "unit": "μM"}, {"measurement": "MIC", "setting": "P. aeruginosa; Pseudomonas aeruginosa, read-out: MIC (μM) P. aeruginosa (stationary)", "value": 6.25, "unit": "µM"}, {"measurement": "MIC (μM) P. aeruginosa (mid-log)", "setting": "P. aeruginosa; mid-log", "value": "0.78-3.12 μM"}, {"measurement": "induced membrane curvature / phase (negative Gaussian curvature, NGC)", "setting": "[2]", "value": "induced NGC was not observed; also recorded: did not induce NGC or negative mean curvature"}, {"measurement": "killing activity", "setting": "[3]", "value": "not strongly bactericidal"}, {"measurement": "reduction in CFU", "setting": "[3]; 52 μM, 3 h", "value": "less than ten"}, {"measurement": "octanol→water partition coefficient Log P", "setting": "[4]", "value": "−3.41"}, {"measurement": "change in IL-6, IL-8, TNF-α and IL-12p40 cytokine production", "setting": "[5]", "value": "no significant change"}]}
